Measurements published in patent US20260217768A1, “NANOPARTICLE-NHE3 PEPTIDE TO TREAT DIARRHEA” (The Johns Hopkins University, priority 2023, published 2026).
“Also recorded” adds a separate entry of the source. Where two headings read alike, the source gives them in different places.

How the values were obtained:
NHE3 [1] = assay: NHE3 stimulation, summary statement over models and delivery systems; format: cell-based; settings: using either delivery system (maleimide or nanoparticles); read-out: EC50 for stimulation of basal and second messenger inhibited NHE3
mouse jejunum [2] = settings: in vivo
mouse jejunum [3] = settings: in vivo; remark: listed apart in the source
NHE3 [4] = assay: NHE3 activity in PS120/HA3-NHE3/NHERF2 cells (BCECF); format: cell-based, rabbit
mouse jejunum [5] = assay: Anti-CD3 monoclonal antibody-induced (TNFα-mediated inflammation) fluid secretion, mouse jejunal loops; format: in vivo
[6] = test system: CTx-induced electrogenic anion secretion; assay: Short-circuit current (Isc) of CTx-treated mouse jejunal loops, Ussing chamber/voltage clamp; settings: for Isc in CTx treated loops compared to CTx in PBS: 400 nM peptide with 1-μg CTx for 6 h, no further secretagogue; for peak increases in Isc with sequential addition of FSK and carbachol: CTx exposed loops, 10-μM FSK then 10-μM CCH serosal, CP-1 vs N3SP-1
mouse jejunum [7] = assay: Basal net water transport, in vivo perfusion of mouse jejunal loops
NHE3 [8] = assay: NHE3 activity in polarized Caco-2/BBe/HA3-NHE3 cells (BCECF); format: cell-based; settings: for EC50: Hill equation
adenylate cyclase-cAMP = assay: cAMP assay in human enteroid monolayers exposed to FSK; format: cell-based; settings: nanoparticles with 250-nM peptide, FSK (10 μM) 45 min, CP-2 vs N3SP-1Δ7
Experimental: Human jejunal enteroid monolayers on Transwell inserts (Corning Cat #: 3470) were differentiated for 5 days and then in serum-free media were exposed apically to nanoparticles containing either 250-nM CP-2 or N3SP-1Δ7. The peptide and polymer in PBS were prepared just before use, allowed to combine for 10 min before being added to the apical surface of enteroid monolayers at room temperature. Monolayers were incubated for 4 hours at 37° C., 5% CO2 incubator before the nanoparticles were removed, then monolayers were washed 3 times with cold PBS and changed to differentiation media and moved to a 37° C. incubator. Differentiation media was removed 24 hours later and washed twice with CMGF-media (Advanced DMEM/F12 with 10-mM Hepes, 10-mM GlutaMax, and 1000 Units/mL Penn/Strep). Next, 100 μL of CMGF-media containing 10-mM Theophylline, 50-μM Cilostazol and 50-μM Rolipram was added to the apical and basolateral surfaces followed by exposure to FSK (10 μM) at 37° C., 5% CO2, for 45 min before apical and basolateral media were collected and cells were lysed in 200-μL 0.1 M HCl for cAMP analysis. CAMP in apical, basolateral, and cells was determined using nonradioactive, CAMP-ELISA kits from ENZO Life Sciences (Loerrach, German), using the acetylation protocol in which the yellow-colored product is inversely proportional to the amount of CAMP present in the sample.

NHE3 [9] = assay: NHE3 activity in differentiated human enteroid monolayers after nanoparticle delivery of peptide; format: cell-based; settings: nanoparticles (250 nM) 18 h, FSK exposure, n=4
Experimental: (§1) NHE3 activity in PS120, Caco-2/BBe cells and human jejunal enteroids was determined fluorometrically (Photon Technologies Incorporated) using the intracellular pH sensitive dye BCECF, as reported (Levine et al., 1993; Sarker et al., 2008; Foulke-Abel et al., 2020). PS120/HA3-NHE3 cells were seeded on glass cover slips and studied at 70-80% confluency. Caco-2/BBe/HA3-NHE3 cells were grown to confluency on Transwell inserts (polyester, 0.4-μm pore size) and studied approximately 14-16 days pod. Human duodenal enteroid monolayers on Transwell inserts were differentiated for 5 days in the absence of Wnt3a, R-spondin, and noggin as described (Noel et al., 2017; Staab et al., 2020).
(§2) Rates of Na^+/H^+ exchange were determined as Na^+-dependent alkalinization in the presence of 50-μM HOE-694 (to inhibit all other plasma membrane NHE isoforms) in HCO3-free solutions, with internal calibration using the nigericin/K+ method, as previously described (Sarker et al., 2008; Foulke-Abel et al., 2020). Kinetic analysis was used for PS120 cell studies (expressed as Vmax) and initial rates (ΔpH/min) for Caco-2/BBe cells, mouse intestine in vitro, and human enteroids. For in vitro mouse jejunal transport studies, NHE3 activity (in the presence of 50-μM HOE-694) was measured using SNARF-4F at 37° C. in a perfusion chamber using a two-photon microscope (Olympus FV1000) and 25× objective, as described (Murtazina et al., 2011).
PBAE polymer and peptide were separately dissolved in pH 7.4 150-mM PBS and combined at a 1:1 volume ratio. Final concentrations of the components were 6-ng/μL peptide and 180-ng/μL polymer (30:1 polymer: peptide weight ratio). Polymer and peptide nanoparticles were allowed to self-assemble at room temperature for 10 minutes. For characterization, nanoparticles were diluted 1:5 in PBS. Hydrodynamic diameter and zeta potential were measured using a Malvern Zetasizer Pro (Malvern Panalytical, Malvern, UK). Stability was assessed by incubating nanoparticles at RT up to 45 minutes then measuring hydrodynamic diameter over 45 minutes. […]

mouse ileal loops [10] = assay: CTx-induced fluid secretion in closed mouse ileal loops, nanoparticle-conjugated peptides; format: in vivo; settings: nanoparticle-peptide 4 μM with 0.1-μg CTx, 4 hours
Experimental: (§3) All in vivo studies were performed on 8-12 week old C57B1/6N mice anesthetized with isofluorane and kept at 37° C. via heating lamps and rectal thermal probes.
(§4) Effect on basal fluid transport and effect of Tenapanor. Mice operated on as above had 3-4 cm closed ileal loops inoculated with 150-μL PBS containing 400-nM nanoparticle-CP-2 or -N3SP-1Δ7. After 4 h, the loops were drained and inoculated with 150-μL PBS. 30 min later, the animals were sacrificed and loop weight/length determined. In parallel studies, Tenapanor (10 μM) was present in both incubation periods. Similar to the BODIPY-conjugated peptide studies, the effects of nanoparticle-CP-2 or N3SP-1Δ7 (4 μM) compared to PBS alone were determined on net fluid secretion produced by inoculation of 0.1-μg CTx. The nanoparticle-peptides plus 0.1-μg CTx in 150-μL PBS were inoculated in 3-4 cm long closed ileal loops. Additional controls included loops exposed only to 150-μL PBS and those only exposed to the CTx/PBS. 4 h later, the animals were sacrificed and loop weight/cm length was determined.

mouse ileal loops [11] = assay: Basal fluid absorption in closed mouse ileal loops, nanoparticle-conjugated peptides, with or without Tenapanor; format: in vivo
Experimental: as §3, §4

[12] = Nanoparticle characterization: hydrodynamic diameter, zeta potential, stability; format: physicochemical; settings: CR5 with peptide, 30:1 polymer:peptide weight ratio
Experimental: PBAE polymer and peptide were separately dissolved in pH 7.4 150-mM PBS and combined at a 1:1 volume ratio. Final concentrations of the components were 6-ng/μL peptide and 180-ng/μL polymer (30:1 polymer: peptide weight ratio). Polymer and peptide nanoparticles were allowed to self-assemble at room temperature for 10 minutes. For characterization, nanoparticles were diluted 1:5 in PBS. Hydrodynamic diameter and zeta potential were measured using a Malvern Zetasizer Pro (Malvern Panalytical, Malvern, UK). Stability was assessed by incubating nanoparticles at RT up to 45 minutes then measuring hydrodynamic diameter over 45 minutes. Nanoparticles were made immediately prior to each experiment.

NHE3 [13] = assay: Effect of N-terminal truncations of N3SP-1 on NHE3 activity in human enteroids (BCECF-fluorometry); format: cell-based; settings: human duodenal enteroids, Hill equation; for Stimulation of NHE3 Activity: basal NHE3 activity, BCECF-fluorometry; for EC50: stimulation of basal NHE3 activity
Experimental: as §1, §2
Concentration dependent effects on NHE3 basal activity was determined using BCECF-fluorometry. Kinetic analysis was determined of extent of stimulation of basal NHE3 activity; analysis was by use of the Hill equation.
Given the ability of N3SP-1Δ7 to prevent CTx-induced fluid secretion in vivo (FIG. 3E) and to stimulate basal NHE3 activity and prevent cAMP inhibition in human enteroids (FIG. 4C), further studies were carried out with human enteroids to determine the shortest N3SP-1-related peptide that would stimulate human NHE3. A series of N3SP-1 N-terminal truncations was synthesized and concentration-dependent stimulation of NHE3 activity determined using human jejunal enteroids.

NHE3 [14] = assay: NHE3 activity in mouse jejunum in vitro (two-photon microscope/SNARF-4F); format: cell-based

Compound: N3SP: general name of the NHE3 stimulatory peptide (N3SP-1 and active truncations) (RPSTVEASVSYLLRESASAVCLDMQSLEQRR) [Peptide N3SP]
- EC50 (NHE3 [1]): ~150 nM

Compound: CP-1: 21 aa control peptide representing aa 585-605 of rabbit NHE3 (YLLRESASAVCLDMQSLEQRR; UniProt P26432 585-605, looked up, fragment)
- effect on CTx-stimulated net fluid secretion (loop weight/cm) (mouse jejunum [2]): did not alter fluid accumulation
- localization of NHE3 in CTx-treated jejunum (mouse jejunum [2]): NHE3 was internalized
- effect on STa-induced intestinal fluid accumulation (mouse jejunum [3]): not observed
- effect on basal NHE3 activity compared to BODIPY alone (NHE3 [4]): no significant effect
- effect on basal NHE3 activity in the absence of BODIPY conjugation (NHE3 [4]): Neither CP-1 nor N3SP-1 altered basal NHE3 activity
- effect on anti-CD3 antibody-induced luminal fluid accumulation (mouse jejunum [5]; mouse, in vivo, ip): increased luminal fluid accumulation
- Isc in CTx treated loops compared to CTx in PBS [6]: slightly, but not significantly, greater
- peak increases in Isc with sequential addition of FSK and carbachol [6]: not different
- jejunal net water transport (mouse jejunum [7]; mouse, in vivo): 4.2 µL/min/cm
- EGF stimulation of NHE3 activity in presence of peptide (NHE3 [8]): 38%

Compound: CP-2: control peptide, N3SP-1 lacking first ten N-terminal amino acids (rabbit NHE3 residues 578-605) (TVEASVSYLLRESASAVCLDMQSLEQRR; UniProt P26432 578-605, looked up, fragment)
- FSK-increased intracellular cAMP (adenylate cyclase-cAMP): similar
- NHE3 activity after FSK, % of same peptide without FSK (NHE3 [9]): 77.2%
- effect on CTx-induced fluid in ileal loops (loop weight/length) (mouse ileal loops [10]): did not reduce the residual loop volume
- residual fluid in presence of Tenapanor, CP2 vs N3SP-1Δ7 (mouse ileal loops [11]; nanoparticle conjugated peptide 400 nM, Tenapanor (10 μM) in both incubation periods): no difference in residual fluid
- effect on CTx-stimulated net fluid secretion (loop weight/cm) (mouse jejunum [2]): Results similar to those with N3SP-1 and CP-1
- surface zeta potential (electrophoretic light scattering) [12]: 24.6±0.5 mV
- nanoparticle diameter (DLS) ([12]; aqueous): 319±55 nm

Compound: CN1Cc2c(Cl)cc(Cl)cc2[C@H](c2cccc(S(=O)(=O)NCCOCCOCCNC(=O)NCCCCNC(=O)NCCOCCOCCNS(=O)(=O)c3cccc([C@@H]4CN(C)Cc5c(Cl)cc(Cl)cc54)c3)c2)C1 [Tenapanor, reference compound]
- effect on N3SP-1Δ7 increased baseline fluid absorption (mouse ileal loops [11]; pretreatment with 10-μM Tenapanor): prevented

Compound: NHE3 mimetic peptide, rabbit NHE3 aa 568-605: NVDFSTPRPSTVEASVSYLLRESASAVCLDMQSLEQRR [Peptide N3SP-1]
- Stimulation of NHE3 Activity (NHE3 [13]): YES (38%)
- EC50 (NHE3 [13]): 152 nM
- stimulation of basal NHE3 activity compared to CP-1 (NHE3 [14]; BODIPY-conjugated peptide 400 nM): 57%
- effect on inhibition of NHE3 by FSK (NHE3 [14]; BODIPY-conjugated peptide pretreatment, FSK (10 μM)): prevented inhibition
- effect on CTx-stimulated net fluid secretion (loop weight/cm) (mouse jejunum [2]): prevented CTx-stimulated fluid secretion
- localization of NHE3 in CTx-treated jejunum (mouse jejunum [2]): NHE3 was detected on the CTx-treated jejunal BB
- effect on STa-induced intestinal fluid accumulation (mouse jejunum [3]): significantly reduced
- stimulation of basal NHE3 activity compared to CP-1 (NHE3 [4]; BODIPY-conjugated peptide 400 nM, PS120/HA3-NHE3/NHERF2 cells): 61%
- effect on inhibition of NHE3 by 4-Br-A23187 (NHE3 [4]; BODIPY-conjugated peptide pretreatment, 0.5-μM A23187, PS120 fibroblasts): prevented inhibition
- effect on basal NHE3 activity in the absence of BODIPY conjugation (NHE3 [4]; unconjugated peptide 400 nM, PS120 cells): No stimulatory effect; also recorded: Neither CP-1 nor N3SP-1 altered basal NHE3 activity
- effect on anti-CD3 antibody-induced luminal fluid accumulation (mouse jejunum [5]; 400 nM peptide in loop, 200-μg anti-CD3 antibody IP, 2.5 h): prevents fluid secretion
- Isc in CTx treated loops compared to CTx in PBS [6]: slightly, but not significantly, greater; also recorded: not altered
- peak increases in Isc with sequential addition of FSK and carbachol [6]: not different
- difference in net water transport between N3SP-1 and CP-1 perfused jejunal loops (mouse jejunum [7]; 400 nM, n=5, p=0.0004): 56.6 ± 15.1 µL/min/cm
- stimulation of basal NHE3 activity compared to CP-1 (NHE3 [8]; BODIPY-conjugated peptide 400 nM, Caco-2/BBe/HA3-NHE3 cells): 41%
- EC50 (NHE3 [8]; BODIPY-conjugated peptide added apically, Caco-2/BBe cells, read-out: EC50 of prevention of FSK inhibition of NHE3): 157 nM
- effect on inhibition of NHE3 by FSK (NHE3 [8]; BODIPY-conjugated peptide pretreatment, FSK (10 μM), Caco-2/BBe cells): prevented inhibition
- effect on inhibition of NHE3 by carbachol (NHE3 [8]; BODIPY-conjugated peptide pretreatment, carbachol (10 μM), Caco-2/BBe cells): prevented inhibition
- concentration of maximal effect on basal NHE3 activity (NHE3 [8]; BODIPY-conjugated peptide, Caco-2/BBe/HA3-NHE3 cells): 400 nM
- EC50 (NHE3 [8]; BODIPY-conjugated peptide, Caco-2/BBe/HA3-NHE3 cells, read-out: EC50 of stimulation of basal NHE3 activity): 152 nM
- EGF stimulation of NHE3 activity in presence of peptide (NHE3 [8]; EGF (200 ng/mL), BODIPY-conjugated peptide 400 nM, Caco-2/BBe cells): 35%

Compound: N3SP-1 N-terminal truncation of 6 aa: PRPSTVEASVSYLLRESASAVCLDMQSLEQRR [Peptide N3SP-1Δ6]
- Stimulation of NHE3 Activity (NHE3 [13]): YES (40%)
- EC50 (NHE3 [13]): 151 nM

Compound: N3SP-1 N-terminal truncation of 5 aa: TPRPSTVEASVSYLLRESASAVCLDMQSLEQRR [Peptide N3SP-1Δ5]
- Stimulation of NHE3 Activity (NHE3 [13]): YES (39%)
- EC50 (NHE3 [13]): 154 nM
